Source: ChEMBL document CHEMBL4308841, “Synthesis, in vitro antiproliferative activity, and kinase inhibitory effects of pyrazole-containing diarylureas and diarylamides” (Eur J Med Chem, 2018)

Columns and labels:
TK-10 = experiment: Growth inhibition of human TK10 cells assessed as cell growth at 10 uM incubated for 48 hrs by sulforhodamine B assay relative to control; type: functional; conditions: TK-10, 48 h, read-out: Activity
NCI-H522 = experiment: Growth inhibition of human NCI-H522 cells incubated for 48 hrs by sulforhodamine B assay; type: functional, cell-based; conditions: NCI-H522, 48 h
HCT-15 [1] = experiment: Growth inhibition of human HCT15 cells incubated for 48 hrs by sulforhodamine B assay; type: functional, cell-based; conditions: HCT-15, 48 h
Malme-3M = experiment: Growth inhibition of human MALME-3M cells incubated for 48 hrs by sulforhodamine B assay; type: functional, cell-based
OVCAR-8 = experiment: Growth inhibition of human OVCAR8 cells incubated for 48 hrs by sulforhodamine B assay; type: functional, cell-based; conditions: OVCAR-8, 48 h
Hs-578T [2] = experiment: Growth inhibition of human Hs578T cells incubated for 48 hrs by sulforhodamine B assay; type: functional, cell-based
HCT-116 [3] = experiment: Growth inhibition of human HCT116 cells assessed as cell growth at 0.01 uM incubated for 48 hrs by sulforhodamine B assay relative to control; type: functional; conditions: HCT-116, 48 h, read-out: Activity
SNB-19 = experiment: Growth inhibition of human SNB19 cells assessed as cell growth at 0.01 uM incubated for 48 hrs by sulforhodamine B assay relative to control; type: functional; conditions: SNB-19, 48 h, read-out: Activity
SNB-75 [4] = experiment: Growth inhibition of human SNB75 cells assessed as cell growth at 0.01 uM incubated for 48 hrs by sulforhodamine B assay relative to control; type: functional; conditions: SNB-75, 48 h, read-out: Activity
RXF 393 = experiment: Growth inhibition of human RXF393 cells assessed as cell growth at 0.01 uM incubated for 48 hrs by sulforhodamine B assay relative to control; type: functional; conditions: RXF 393, 48 h, read-out: Activity
SR = experiment: Growth inhibition of human SR cells assessed as cell growth at 0.1 uM incubated for 48 hrs by sulforhodamine B assay relative to control; type: functional; conditions: read-out: Activity
NCI-H23 [5] = experiment: Growth inhibition of human NCI-H23 cells assessed as cell growth at 0.1 uM incubated for 48 hrs by sulforhodamine B assay relative to control; type: functional; conditions: NCI-H23, 48 h, read-out: Activity
HCT-116 [6] = experiment: Growth inhibition of human HCT116 cells assessed as cell growth at 0.1 uM incubated for 48 hrs by sulforhodamine B assay relative to control; type: functional; conditions: HCT-116, 48 h, read-out: Activity
SF-268 = experiment: Growth inhibition of human SF268 cells assessed as cell growth at 0.1 uM incubated for 48 hrs by sulforhodamine B assay relative to control; type: functional; conditions: SF-268, 48 h, read-out: Activity
SNB-75 [7] = experiment: Growth inhibition of human SNB75 cells assessed as cell growth at 0.1 uM incubated for 48 hrs by sulforhodamine B assay relative to control; type: functional; conditions: SNB-75, 48 h, read-out: Activity
M14 = experiment: Growth inhibition of human M14 cells assessed as cell growth at 0.1 uM incubated for 48 hrs by sulforhodamine B assay relative to control; type: functional; conditions: M14, 48 h, read-out: Activity
IGROV-1 = experiment: Growth inhibition of human IGROV1 cells assessed as cell growth at 0.1 uM incubated for 48 hrs by sulforhodamine B assay relative to control; type: functional; conditions: IGROV-1, 48 h, read-out: Activity
OVCAR-3 = experiment: Growth inhibition of human OVCAR3 cells assessed as cell growth at 0.1 uM incubated for 48 hrs by sulforhodamine B assay relative to control; type: functional; conditions: OVCAR-3, 48 h, read-out: Activity
SN12C = experiment: Growth inhibition of human SN12C cells assessed as cell growth at 0.1 uM incubated for 48 hrs by sulforhodamine B assay relative to control; type: functional; conditions: read-out: Activity
Hs-578T [8] = experiment: Growth inhibition of human Hs578T cells assessed as cell growth at 0.1 uM incubated for 48 hrs by sulforhodamine B assay relative to control; type: functional; conditions: read-out: Activity
NCI-H23 [9] = experiment: Growth inhibition of human NCI-H23 cells assessed as cell growth at 1 uM incubated for 48 hrs by sulforhodamine B assay relative to control; type: functional; conditions: NCI-H23, 48 h, read-out: Activity
SNB-75 [10] = experiment: Growth inhibition of human SNB75 cells assessed as cell growth at 1 uM incubated for 48 hrs by sulforhodamine B assay relative to control; type: functional; conditions: SNB-75, 48 h, read-out: Activity
U-251 = experiment: Growth inhibition of human U251 cells assessed as cell growth at 1 uM incubated for 48 hrs by sulforhodamine B assay relative to control; type: functional; conditions: U-251, 48 h, read-out: Activity
OVCAR-5 = experiment: Growth inhibition of human OVCAR5 cells assessed as cell growth at 1 uM incubated for 48 hrs by sulforhodamine B assay relative to control; type: functional; conditions: OVCAR-5, 48 h, read-out: Activity
786-0 = experiment: Growth inhibition of human 786-0 cells assessed as cell growth at 1 uM incubated for 48 hrs by sulforhodamine B assay relative to control; type: functional; conditions: 786-0, 48 h, read-out: Activity
CAKI-1 = experiment: Growth inhibition of human Caki1 cells assessed as cell growth at 1 uM incubated for 48 hrs by sulforhodamine B assay relative to control; type: functional; conditions: CAKI-1, 48 h, read-out: Activity
HCT-15 [11] = experiment: Growth inhibition of human HCT15 cells assessed as cell growth at 100 uM incubated for 48 hrs by sulforhodamine B assay relative to control; type: functional; conditions: HCT-15, 48 h, read-out: Activity
HT-29 = experiment: Growth inhibition of human HT-29 cells assessed as cell growth at 100 uM incubated for 48 hrs by sulforhodamine B assay relative to control; type: functional; conditions: HT-29, 48 h, read-out: Activity
UO-31 = experiment: Growth inhibition of human UO31 cells assessed as cell growth at 100 uM incubated for 48 hrs by sulforhodamine B assay relative to control; type: functional; conditions: UO-31, 48 h, read-out: Activity
BT-549 = experiment: Growth inhibition of human BT549 cells assessed as cell growth at 100 uM incubated for 48 hrs by sulforhodamine B assay relative to control; type: functional; conditions: BT-549, 48 h, read-out: Activity
MDA-MB-468 = experiment: Growth inhibition of human MDA-MB-468 cells assessed as cell growth at 100 uM incubated for 48 hrs by sulforhodamine B assay relative to control; type: functional; conditions: MDA-MB-468, 48 h, read-out: Activity
[12] = read-out: LC50 (the source's name)
[13] = read-out: pLC50 (the source's name) (converted)

## O=C(Nc1cccc(-n2cc(-c3ccncc3)c(-c3cc(O)cc(Cl)c3)n2)c1)c1ccc(N2CCOCC2)c(C(F)(F)F)c1
TK-10
  growth at 10 µM: 70.3%
NCI-H522; read-out: GI50
  GI50: 0.934 µM
NCI-H522; [12]
  CC50: > 100 µM
NCI-H522; read-out: TGI
  TGI: 12.1 µM
NCI-H522; read-out: pGI50 (converted)
  GI50: 0.933 µM
NCI-H522; [13]
  CC50: > 100 µM
NCI-H522; read-out: pTGI (converted)
  TGI: 12 µM
HCT-15 [1]; read-out: GI50
  GI50: 0.559 µM
HCT-15 [1]; [12]
  CC50: 84.9 µM
HCT-15 [1]; read-out: TGI
  TGI: 11.3 µM
HCT-15 [1]; read-out: pGI50 (converted)
  GI50: 0.562 µM
HCT-15 [1]; [13]
  CC50: 85.1 µM
HCT-15 [1]; read-out: pTGI (converted)
  TGI: 11.2 µM
Malme-3M; read-out: GI50
  GI50: 1.38 µM
Malme-3M; [12]
  CC50: > 100 µM
Malme-3M; read-out: TGI
  TGI: 51.9 µM
Malme-3M; read-out: pGI50 (converted)
  GI50: 1.38 µM
Malme-3M; [13]
  CC50: > 100 µM
Malme-3M; read-out: pTGI (converted)
  TGI: 5.25 µM
OVCAR-8; read-out: GI50
  GI50: 15.4 µM
OVCAR-8; [12]
  CC50: > 100 µM
OVCAR-8; read-out: TGI
  TGI: > 100 µM
OVCAR-8; read-out: pGI50 (converted)
  GI50: 1.62 µM
OVCAR-8; [13]
  CC50: > 100 µM
OVCAR-8; read-out: pTGI (converted)
  TGI: > 100 µM
Hs-578T [2]; read-out: GI50
  GI50: 2.94 µM
Hs-578T [2]; [12]
  CC50: > 100 µM
Hs-578T [2]; read-out: TGI
  TGI: > 100 µM
Hs-578T [2]; read-out: pGI50 (converted)
  GI50: 2.95 µM
Hs-578T [2]; [13]
  CC50: > 100 µM
Hs-578T [2]; read-out: pTGI (converted)
  TGI: > 100 µM
HCT-116 [3]
  growth at 0.01 µM: 102%
SNB-19
  growth at 0.01 µM: 101%
SNB-75 [4]
  growth at 0.01 µM: 57%
RXF 393
  growth at 0.01 µM: 91%
SR
  growth at 0.1 µM: 98%
NCI-H23 [5]
  growth at 0.1 µM: 104%
HCT-116 [6]
  growth at 0.1 µM: 102%
SF-268
  growth at 0.1 µM: 101%
SNB-75 [7]
  growth at 0.1 µM: 83%
M14
  growth at 0.1 µM: 91%
IGROV-1
  growth at 0.1 µM: 103%
OVCAR-3
  growth at 0.1 µM: 113%
SN12C
  growth at 0.1 µM: 98%
Hs-578T [8]
  growth at 0.1 µM: 90%
NCI-H23 [9]
  growth at 1 µM: 92%
SNB-75 [10]
  growth at 1 µM: 45%
U-251
  growth at 1 µM: 51%
OVCAR-5
  growth at 1 µM: 111%
786-0
  growth at 1 µM: 77%
CAKI-1
  growth at 1 µM: 53%
HCT-15 [11]
  growth at 100 µM: -54%
HT-29
  growth at 100 µM: -41%
UO-31
  growth at 100 µM: -33%
BT-549
  growth at 100 µM: 17%
MDA-MB-468
  growth at 100 µM: -15%

## COc1cc(Cl)cc(-c2nn(-c3cccc(NC(=O)Nc4cc(C(F)(F)F)cc(C(F)(F)F)c4)c3)cc2-c2ccncc2)c1
TK-10
  growth at 10 µM: 30.3%
NCI-H522
  IC50: 0.35 µM
NCI-H522; read-out: GI50
  GI50: 0.353 µM
NCI-H522; read-out: TGI
  TGI: 1.76 µM
NCI-H522; read-out: pGI50 (converted)
  GI50: 0.355 µM
NCI-H522; [13]
  CC50: 8.91 µM
NCI-H522; read-out: pTGI (converted)
  TGI: 1.78 µM
HCT-15 [1]
  IC50: 0.35 µM
HCT-15 [1]; read-out: GI50
  GI50: 0.352 µM
HCT-15 [1]; read-out: TGI
  TGI: 2.25 µM
HCT-15 [1]; read-out: pGI50 (converted)
  GI50: 0.355 µM
HCT-15 [1]; [13]
  CC50: 74.1 µM
HCT-15 [1]; read-out: pTGI (converted)
  TGI: 2.82 µM
Malme-3M
  IC50: 0.53 µM
Malme-3M; read-out: GI50
  GI50: 0.53 µM
Malme-3M; [12]
  CC50: > 100 µM
Malme-3M; read-out: TGI
  TGI: 3.57 µM
Malme-3M; read-out: pGI50 (converted)
  GI50: 0.537 µM
Malme-3M; [13]
  CC50: > 100 µM
Malme-3M; read-out: pTGI (converted)
  TGI: 3.55 µM
OVCAR-8
  IC50: 0.39 µM
OVCAR-8; read-out: GI50
  GI50: 0.391 µM
OVCAR-8; read-out: TGI
  TGI: 2.19 µM
OVCAR-8; read-out: pGI50 (converted)
  GI50: 0.389 µM
OVCAR-8; [13]
  CC50: 47.9 µM
OVCAR-8; read-out: pTGI (converted)
  TGI: 2.19 µM
Hs-578T [2]
  IC50: 1.4 µM
Hs-578T [2]; read-out: GI50
  GI50: 1.4 µM
Hs-578T [2]; read-out: TGI
  TGI: 7.26 µM
Hs-578T [2]; read-out: pGI50 (converted)
  GI50: 1.45 µM
Hs-578T [2]; [13]
  CC50: > 100 µM
Hs-578T [2]; read-out: pTGI (converted)
  TGI: 7.24 µM
HCT-116 [3]
  growth at 0.01 µM: 102%
SNB-19
  growth at 0.01 µM: 89%
SNB-75 [4]
  growth at 0.01 µM: 71%
RXF 393
  growth at 0.01 µM: 96%
SR
  growth at 0.1 µM: 92%
NCI-H23 [5]
  growth at 0.1 µM: 95%
HCT-116 [6]
  growth at 0.1 µM: 97%
SF-268
  growth at 0.1 µM: 99%
SNB-75 [7]
  growth at 0.1 µM: 74%
M14
  growth at 0.1 µM: 93%
IGROV-1
  growth at 0.1 µM: 104%
OVCAR-3
  growth at 0.1 µM: 95%
SN12C
  growth at 0.1 µM: 97%
Hs-578T [8]
  growth at 0.1 µM: 95%
NCI-H23 [9]
  growth at 1 µM: 8%
SNB-75 [10]
  growth at 1 µM: 48%
U-251
  growth at 1 µM: 11%
OVCAR-5
  growth at 1 µM: 59%
786-0
  growth at 1 µM: 38%
CAKI-1
  growth at 1 µM: 22%
HCT-15 [11]
  growth at 100 µM: -83%
HT-29
  growth at 100 µM: -96%
UO-31
  growth at 100 µM: -82%
BT-549
  growth at 100 µM: -80%
MDA-MB-468
  growth at 100 µM: -40%
